Results published in article PMC12596218 (Journal of Lipid Research, 2025).
Changes are numbered by the printed parent chain. “And” between values parts separate entries of the source, which are not always exact repeats. Identical values can stand only once.

Columns and labels:
ASBT = biological target: T1, ASBT (Homo sapiens, UniProt Q12908); experiment: [3H]TC transport and inhibition assay in ASBT-HEK293 cells; assay type: cell-based; conditions: for IC50: 1 μM [3H]TC, 10 min, ASBT-HEK293, two independent experiments
T1 construct: stably transfected with the full open reading frames of human NTCP, ASBT, SOAT, OATP1B1, OATP1B3, OATP2B1, and murine Asbt (mAsbt); expressed in transfected cells; host or cells: HEK293 (Flp-In), stably transfected, tetracycline-induced
T1 sequence (Q12908 1-348): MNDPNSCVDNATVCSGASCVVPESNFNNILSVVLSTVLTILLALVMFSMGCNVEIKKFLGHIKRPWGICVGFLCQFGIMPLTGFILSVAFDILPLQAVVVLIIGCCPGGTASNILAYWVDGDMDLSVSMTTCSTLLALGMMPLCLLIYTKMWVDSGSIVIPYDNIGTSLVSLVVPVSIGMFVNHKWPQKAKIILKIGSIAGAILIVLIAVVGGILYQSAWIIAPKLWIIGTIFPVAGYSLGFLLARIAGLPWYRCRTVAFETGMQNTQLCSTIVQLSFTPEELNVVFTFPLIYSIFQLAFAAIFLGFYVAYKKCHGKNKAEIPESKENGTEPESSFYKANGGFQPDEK
Excerpt: Human embryonic kidney HEK293 cells, stably transfected with the full open reading frames of human NTCP, ASBT, SOAT, OATP1B1, OATP1B3, OATP2B1, and murine Asbt (mAsbt) were used as reported ([18], [20], [21], [22], [23]). The NTCP, ASBT, and mAsbt constructs were C-terminally tagged with the FLAG epitope, and the SOAT construct was C-terminally tagged with green fluorescent protein. Non-transfected Flp-In HEK293 cells (Thermo Fisher Scientific) served as the control. All cell lines were maintained at 37°C, 5% CO2 and 95% humidity in DMEM/F-12 medium (Thermo Fisher Scientific) supplemented with 10% fetal calf serum (Sigma-Aldrich), 4 mM L-glutamine (PAA) and penicillin/streptomycin (PAA). Expression of the respective carrier protein was induced by tetracycline treatment at 1 μg/ml (Carl Roth GmbH + Co. KG).
(§1) Cells were seeded onto poly-L-lysine-coated 96-well plates, induced with 1 μg/ml tetracycline, and grown to confluence over 72 h at 37°C. Then, cells were washed with tempered (37°C) phosphate-buffered saline (PBS, containing 137.0 mM NaCl, 2.7 mM KCl, 1.5 mM KH2PO4, and 7.3 mM Na2HPO4, at pH 7.4) and preincubated with 80 μl sodium transport buffer (STB, containing 142.9 mM NaCl, 4.7 mM KCl, 1.2 mM MgSO4, 1.2 mM KH2PO4, 1.8 mM CaCl2, and 20.0 mM HEPES, at pH 7.4) for 5 min at 37°C. For inhibition studies, the medium was replaced by 80 μl STB containing the respective inhibitor or solvent alone and cells were further incubated for 5 min at 37°C. Transport experiments were started by adding 20 μl of a 5-fold concentrated substrate solution (solved in STB). For transport experiments under sodium-free conditions the same buffer composition was used as for STB, but sodium chloride was substituted with equimolar concentrations of choline chloride as previously reported ([20], [24]). Transport experiments were stopped by washing twice with ice-cold PBS and the plates were kept cool on ice until adding the lysis buffer [1% sodium dodecyl sulfate (SDS) and 1 N NaOH]. Then, the cell-associated radioactivity of the respective tritium-labeled substrate or ligand was quantified by liquid scintillation counting using MicroScint-20 scintillation cocktail (Revvity) in a Packard Microplate Scintillation Counter TopCount NXT (Packard Instrument Company). For IC50 transport inhibition measurements, the mean uptake values measured in non-carrier-expressing HEK293 control cells were defined as 0% uptake control and were subtracted from all other values. Values from cells without inhibitor and solvent alone were set to 100%. Finally, all net transport data were expressed as uptake or binding as % of control. All transport or inhibition graphs were generated with GraphPad Prism 6 (GraphPad). Determination of half maximal inhibitory concentrations (IC50) was done by nonlinear regression analysis using the equation log (inhibitor) versus response—variable slope settings. All data points of the IC50 curves represent means ± SD of quadruplicate determinations. For Km measurements, BS uptake in the absence of sodium was regarded as carrier-independent unspecific uptake and was subtracted from the transport rates in the presence of sodium to obtain carrier-specific uptake rates (indicated as dashed lines). From the specific uptake rates, Michaelis Menten Km values were calculated by non-linear regression analysis.

[1] = biological target: T2, ASBT S294T/I295V (ASBT→mAsbt) (Homo sapiens, UniProt Q12908, I295V/S294T); experiment: [3H]TC transport and inhibition assay, ASBT→mAsbt mutant in HEK293 cells; assay type: cell-based; conditions: for Inhibition curve/AUC of ASBT→mAsbt mutant compared to wild-type ASBT: 1 μM [3H]TC, 10 min, AUC combined from two experiments
T2 construct: stably transfected with the full open reading frames of human NTCP, ASBT, SOAT, OATP1B1, OATP1B3, OATP2B1, and murine Asbt (mAsbt); expressed in transfected cells; host or cells: HEK293, stably transfected
T2 sequence (Q12908 1-348 S294T/I295V): T1 sequence (Q12908 1-348) with S294T, I295V
Protocol: Amplification was performed on a peqSTAR XS PEQLAB PCR cycler (Peqlab) with Pfu DNA polymerase (M774A; Promega) in 18 cycles under the following conditions: initial denaturation for 2 min at 95°C, denaturation for 30 s at 95°C, annealing for 1 min at 55°C, extension for 8 min and 30 s at 72°C, final elongation for 10 min at 72°C and final hold at 4°C. After amplification, the products were digested with DpnI (ER1701; Thermo Fisher Scientific) for 1 h at 37°C and transformed into TOP10 chemically competent E. coli (Thermo Fisher Scientific). Plasmids were isolated using a GeneJET Plasmid Miniprep Kit (Thermo Fisher Scientific) according to the manufacturer's protocol, and the generated point mutations were verified by DNA sequencing (Seqlab Microsynth).
as §1

**Q.** `CCCCC1(CCCC)CS(=O)(=O)c2ccc(N(C)C)cc2[C@@H](c2ccc(OCCCC[N+]34CCN(CC3)CC4)cc2)[C@H]1O` [SC-435] was tested. Which IC50 (ASBT) did it give?
**A.** The IC50 was 200 nM and 230 nM.

**Q.** What about the “Inhibition curve/AUC of ASBT→mAsbt mutant compared to wild-type ASBT” value [1] of the same compound?
**A.** Its value is “this effect was also observed”.

**Q.** Which IC50 (ASBT) does the source give for `CCCCC1(CCCC)CN(c2ccccc2)c2cc(SC)c(OCC(=O)N[C@@H](C(=O)NCC(=O)O)c3ccccc3)cc2S(=O)(=O)C1` [elobixibat] here?
**A.** Its IC50 is 110 nM and 230 nM.

**Q.** And the “IC50 ratio for ASBT versus NTCP inhibition” value (ASBT; measured in this study)?
**A.** The value was 0.002-0.006.

**Q.** And the “Inhibition curve/AUC of ASBT→mAsbt mutant compared to wild-type ASBT” value [1]?
**A.** The value was “not different”.

**Q.** How did the IC50 (ASBT) turn out when `CCCC[C@]1(CC)CS(=O)(=O)c2cc(CNC(CC(=O)O)CC(=O)O)c(OC)cc2[C@@H](c2ccccc2)N1` [linerixibat] was run?
**A.** Its IC50 is 180 nM and 250 nM.

**Q.** And the “Transport inhibition at highest substrate concentration” value (ASBT; 500 μM [3H]TC)?
**A.** Its value is “full transport inhibition”.

**Q.** And the “Slope of IC50 values versus TC substrate concentration” value (ASBT; [3H]TC 0.3-500 μM, linear regression)?
**A.** Its value is 4.0 × 10^−4.

**Q.** And the “Inhibition curve/AUC of ASBT→mAsbt mutant compared to wild-type ASBT” value [1]?
**A.** The value was “significantly reduced the AUC values”.

**Q.** What about the “Transport inhibition at highest substrate concentration” value ([1]; 500 μM [3H]TC) of the same compound?
**A.** The value was “full transport inhibition”.

**Q.** What about the “IC50 values at increasing substrate concentrations (in words)” value ([1]; [3H]TC 0.3-500 μM) of the same compound?
**A.** The value was “remained quite stable”.

**Q.** Which IC50 (ASBT) does the source give for `CCCCC1(CCCC)CN(c2ccccc2)c2cc(SC)c(OCC(=O)N[C@@H](C(=O)N[C@@H](CC)C(=O)O)c3ccc(O)cc3)cc2S(=O)(=O)N1` [odevixibat] here?
**A.** The IC50 was 680 nM and 990 nM.

**Q.** What about the “Inhibition curve/AUC of ASBT→mAsbt mutant compared to wild-type ASBT” value [1] of the same compound?
**A.** Its value is “not different”.
